# In ChEMBL document CHEMBL6120978, “Anticancer activity of salinomycin quaternary phosphonium salts” (Eur J Med Chem, 2025):
# Active and inactive are the calls of the source. The calls are words filed in the database; no cut-off is given here.
# How the values were obtained:
# [1] = test system: SW480; experiment: Cytotoxicity against human SW480 cells incubated for 72 hrs by MTT assay; type: functional, cell-based; conditions: SW480, 72 h
# [2] = test system: SW-620; experiment: Cytotoxicity against human SW620 cells incubated for 72 hrs by MTT assay; type: functional, cell-based; conditions: SW-620, 72 h
# [3] = test system: PC-3; experiment: Cytotoxicity against human PC-3 cells incubated for 72 hrs by MTT assay; type: functional, cell-based; conditions: PC-3, 72 h
# [4] = test system: MDA-MB-231; experiment: Cytotoxicity against human MDA-MB-231 cells incubated for 72 hrs by MTT assay; type: functional, cell-based; conditions: MDA-MB-231, 72 h
# [5] = test system: A549; experiment: Cytotoxicity against human A549 cells incubated for 72 hrs by MTT assay; type: functional, cell-based; conditions: A549, 72 h
# [6] = Cytotoxicity against human HaCaT cells incubated for 72 hrs by MTT assay; type: toxicity, cell-based
# [7] = Cytotoxicity against chinese hamster V79 cells incubated for 72 hrs by MTT assay; type: toxicity, cell-based, Cricetulus griseus
# [8] = Selectivity index, ratio of IC50 for cytotoxicity against human HaCaT cells to IC50 for cytotoxicity against human SW480 cells; type: toxicity, cell-based; conditions: HaCaT cells versus SW480 cells, read-out: Ratio IC50
# [9] = Selectivity index, ratio of IC50 for cytotoxicity against human HaCaT cells to IC50 for cytotoxicity against human SW620 cells; type: toxicity, cell-based; conditions: HaCaT cells versus SW620 cells, read-out: Ratio IC50
# [10] = Selectivity index, ratio of IC50 for cytotoxicity against human HaCaT cells to IC50 for cytotoxicity against human PC-3 cells; type: toxicity, cell-based; conditions: HaCaT cells versus PC-3 cells, read-out: Ratio IC50
# [11] = Selectivity index, ratio of IC50 for cytotoxicity against human HaCaT cells to IC50 for cytotoxicity against human MDA-MB-231 cells; type: toxicity, cell-based; conditions: HaCaT cells versus MDA-MB-231 cells, read-out: Ratio IC50
# [12] = Selectivity index, ratio of IC50 for cytotoxicity against human HaCaT cells to IC50 for cytotoxicity against human A549 cells; type: toxicity, cell-based; conditions: HaCaT cells versus A549 cells, read-out: Ratio IC50
# [13] = Selectivity index, ratio of IC50 for cytotoxicity against chinese hamster V79 cells to IC50 for cytotoxicity against human SW480 cells; type: toxicity, cell-based; conditions: V79 cells versus SW480 cells, read-out: Ratio IC50
# [14] = Selectivity index, ratio of IC50 for cytotoxicity against chinese hamster V79 cells to IC50 for cytotoxicity against human SW620 cells; type: toxicity, cell-based; conditions: V79 cells versus SW620 cells, read-out: Ratio IC50
# [15] = Selectivity index, ratio of IC50 for cytotoxicity against chinese hamster V79 cells to IC50 for cytotoxicity against human PC-3 cells; type: toxicity, cell-based; conditions: V79 cells versus PC-3 cells, read-out: Ratio IC50
# [16] = Selectivity index, ratio of IC50 for cytotoxicity against chinese hamster V79 cells to IC50 for cytotoxicity against human MDA-MB-231 cells; type: toxicity, cell-based; conditions: V79 cells versus MDA-MB-231 cells, read-out: Ratio IC50
# [17] = Selectivity index, ratio of IC50 for cytotoxicity against chinese hamster V79 cells to IC50 for cytotoxicity against human A549 cells; type: toxicity, cell-based; conditions: V79 cells versus A549 cells, read-out: Ratio IC50
# [18] = test system: A549; experiment: Effect on mitochondrial mass in human A549 cells assessed as increase in mean fluorescence intensity at IC50 incubated for 48 hrs by MitoTracker Green FM staining based flow cytometry analysis; type: functional, cell-based
# [19] = test system: MDA-MB-231; experiment: Effect on mitochondrial mass in human MDA-MB-231 cells assessed as increase in mean fluorescence intensity at IC50 incubated for 48 hrs by MitoTracker Green FM staining based flow cytometry analysis; type: functional, cell-based
# [20] = test system: A549; experiment: Effect on mitochondrial function in human A549 cells assessed as change in mean fluorescence intensity at IC50 incubated for 48 hrs by MitoTracker Red CMXRos staining based flow cytometry analysis; type: functional, cell-based
# [21] = test system: Mitochondrial membrane; experiment: Induction of mitochondrial membrane potential loss in human A549 cells assessed as green fluorescence at IC50 incubated for 48 hrs MitoTracker Green FM staining based flow cytometry analysis (reference value: 8.93 %); type: cell membranes
# [22] = test system: MDA-MB-231; experiment: Induction of cell cycle arrest in human MDA-MB-231 cells assessed as inhibition of cell division at IC50 incubated for 24 hrs by propidium iodide staining based flow cytometry analysis; type: functional
# [23] = test system: A549; experiment: Induction of apoptosis in human A549 cells assessed as viable cells at IC50 incubated for 72 hrs by Annexin V-FITC staining based flow cytometry analysis (reference value: 95.49 %); type: functional
# [24] = test system: A549; experiment: Induction of apoptosis in human A549 cells assessed as early apoptotic cells at IC50 incubated for 72 hrs by Annexin V-FITC staining based flow cytometry analysis (reference value: 1.68 %); type: functional
# [25] = test system: A549; experiment: Induction of apoptosis in human A549 cells assessed as late apoptotic cells at IC50 incubated for 72 hrs by Annexin V-FITC staining based flow cytometry analysis (reference value: 1.86 %); type: functional
# [26] = test system: A549; experiment: Induction of apoptosis in human A549 cells assessed as necrotic cells at IC50 incubated for 72 hrs by Annexin V-FITC staining based flow cytometry analysis (reference value: 0.97 %); type: functional
# [27] = test system: MDA-MB-231; experiment: Induction of apoptosis in human MDA-MB-231 cells assessed as viable cells at IC50 incubated for 72 hrs by Annexin V-FITC staining based flow cytometry analysis (reference value: 91.53 %); type: functional
# [28] = test system: MDA-MB-231; experiment: Induction of apoptosis in human MDA-MB-231 cells assessed as early apoptotic cells at IC50 incubated for 72 hrs by Annexin V-FITC staining based flow cytometry analysis (reference value: 4.23 %); type: functional
# [29] = test system: MDA-MB-231; experiment: Induction of apoptosis in human MDA-MB-231 cells assessed as late apoptotic cells at IC50 incubated for 72 hrs by Annexin V-FITC staining based flow cytometry analysis (reference value: 3.07 %); type: functional
# [30] = test system: MDA-MB-231; experiment: Induction of apoptosis in human MDA-MB-231 cells assessed as necrotic cells at IC50 incubated for 72 hrs by Annexin V-FITC staining based flow cytometry analysis (reference value: 1.17 %); type: functional
# [31] = test system: Mitochondrial membrane; experiment: Induction of mitochondrial membrane potential loss in human MDA-MB-231 cells assessed as green fluorescence at IC50 incubated for 48 hrs MitoTracker Green FM staining based flow cytometry analysis (reference value: 8.86 %); type: cell membranes
# [32] = test system: Mitochondrial membrane; experiment: Induction of mitochondrial membrane potential loss in human MDA-MB-231 cells assessed as red fluorescence at IC50 incubated for 48 hrs MitoTrackerRed CMXRos staining based flow cytometry analysis (reference value: 91.1 %); type: cell membranes
# [33] = test system: Mitochondrial membrane; experiment: Induction of mitochondrial membrane potential loss in human A549 cells assessed as red fluorescence at IC50 incubated for 48 hrs MitoTrackerRed CMXRos staining based flow cytometry analysis (reference value: 91.1 %); type: cell membranes
# [34] = test system: A549; experiment: Induction of ROS generation of human A549 cells at IC50 incubated for 6 hrs by CellROX Green staining based spectrofluorometer analysis; type: functional, cell-based
# [35] = test system: MDA-MB-231; experiment: Induction of ROS generation of human MDA-MB-231 cells at IC50 incubated for 6 hrs by CellROX Green staining based spectrofluorometer analysis; type: functional, cell-based
# [36] = test system: Staphylococcus aureus; experiment: Antimicrobial activity against Staphylococcus aureus NCTC 4163 incubated for 18 hrs by twofold microdilution method; type: functional
# [37] = test system: Staphylococcus aureus; experiment: Antimicrobial activity against Staphylococcus aureus ATCC 25923 incubated for 18 hrs by twofold microdilution method; type: functional
# [38] = test system: Staphylococcus aureus; experiment: Antimicrobial activity against Staphylococcus aureus ATCC 6538 incubated for 18 hrs by twofold microdilution method; type: functional
# [39] = test system: Staphylococcus aureus; experiment: Antimicrobial activity against Staphylococcus aureus ATCC 29213 incubated for 18 hrs by twofold microdilution method; type: functional
# [40] = test system: Staphylococcus epidermidis; experiment: Antimicrobial activity against Staphylococcus epidermidis ATCC 12228 incubated for 18 hrs by twofold microdilution method; type: functional
# [41] = test system: Staphylococcus epidermidis; experiment: Antimicrobial activity against Staphylococcus epidermidis ATCC 35984 incubated for 18 hrs by twofold microdilution method; type: functional
# [42] = test system: Escherichia coli; experiment: Antimicrobial activity against Escherichia coli ATCC 25922 incubated for 18 hrs by twofold microdilution method; type: functional
# [43] = test system: Pseudomonas aeruginosa; experiment: Antimicrobial activity against Pseudomonas aeruginosa ATCC 15442 incubated for 18 hrs by twofold microdilution method; type: functional
# [44] = test system: A549; experiment: Induction of mitochondrial respiration in human A549 cells assessed as oxygen consumption rate at 0.1 to 10 uM by Oxygraph-2K system; type: functional, cell-based; conditions: dose 0.1-10 µM
# [45] = test system: Lipid bilayer; experiment: Induction of ionic transport in azolectin bilayer membrane assessed as specific channel-like structure formation in presence of HEPES buffer by electrophysiology technique
# [46] = test system: Lipid bilayer; experiment: Induction of ionic transport in azolectin bilayer membrane assessed as irregular disturbance in membrane permeability in presence of HEPES buffer by electrophysiology technique
# [47] = test system: Lipid bilayer; experiment: Induction of ionic transport in azolectin bilayer membrane assessed as membrane rupture in presence of HEPES buffer by electrophysiology technique
# [48] = test system: Lipid bilayer; experiment: Induction of current generation in azolectin bilayer membrane upto 10 uM in presence of HEPES buffer by electrophysiology technique; type: cell membranes
smiles,measurement,setting,value
CC[C@@H](C(=O)[C@@H](C)[C@@H](O)[C@H](C)[C@@H]1O[C@@H]([C@@H](CC)C(=O)O)CC[C@@H]1C)[C@H]1O[C@]2(C=C[C@@H](O)[C@]3(CC[C@@](C)([C@H]4CC[C@](O)(CC)[C@H](C)O4)O3)O2)[C@H](C)C[C@@H]1C [SALINOMYCIN],IC50,[1],1360 nM
same,IC50,[2],1810 nM
same,IC50,[3],3000 nM
same,IC50,[4],1220 nM
same,IC50,[5],1860 nM
same,IC50 at 72 h,[6],800 nM
same,IC50 at 72 h,[7],1440 nM
same,selectivity ratio,[8],0.6
same,selectivity ratio,[9],0.4
same,selectivity ratio,[10],0.3
same,selectivity ratio,[11],0.66
same,selectivity ratio,[12],0.4
same,selectivity ratio,[13],1.1
same,selectivity ratio,[14],0.8
same,selectivity ratio,[15],0.5
same,selectivity ratio,[16],1.2
same,selectivity ratio,[17],0.8
same,Activity,[18],Active; Slight Increase In Mfi Is Observed
same,Activity,[19],Active; Slight Increase In Mfi Is Observed
same,Activity,[20],inactive
same,Activity,[21],18.8%
same,Activity,[22],Active
same,Activity,[23],84.56%
same,Activity,[24],9.72%
same,Activity,[25],2.05%
same,Activity,[26],3.67%
same,Activity,[27],76.94%
same,Activity,[28],8.6%
same,Activity,[29],11.49%
same,Activity,[30],2.97%
same,Activity,[31],23.4%
same,Activity,[32],76.7%
same,Activity,[33],91.2%
same,Activity,[34],Active; Slight Insignificant Increase In Ros Level Was Observed
same,Activity,[35],Active; Slight Insignificant Increase In Ros Level Was Observed
same,MIC,[36],0.5 µg/mL
same,MIC,[37],0.5 µg/mL
same,MIC,[38],0.5 µg/mL
same,MIC,[39],0.5 µg/mL
same,MIC,[40],0.5 µg/mL
same,MIC,[41],1 µg/mL
same,MIC,[42],> 256 µg/mL
same,MIC,[43],> 256 µg/mL
same,Activity,[44],inactive
same,Activity,[45],inactive
same,Activity,[46],inactive
same,Activity,[47],inactive
same,Activity,[48],inactive
